Where two headings read alike, the source gives them in different places. Blank lines part the entries; values can stand above or below the compound they belong to.
Tests used:
[1] = cited from earlier work
[2] = target: [125I]-epibatidine binding sites (α4β2-nAChR), cortex membranes (Mus musculus, UniProt O70174+Q9ERK7); test: Inhibition of [125I]-epibatidine binding to cortex membranes; parameters: species or system C57Bl/6J mice
[3] = cited from earlier work; remark: listed apart in the source
[4] = cited from earlier work; remark: listed apart in the source
[5] = tested on: C57Bl/6J mice; test: Tolerance to acute nicotine after chronic treatment; format: in vivo; conditions: Mus musculus, ip

Chain of [125I]-epibatidine binding sites (α4β2-nAChR), cortex membranes (O70174 31-629): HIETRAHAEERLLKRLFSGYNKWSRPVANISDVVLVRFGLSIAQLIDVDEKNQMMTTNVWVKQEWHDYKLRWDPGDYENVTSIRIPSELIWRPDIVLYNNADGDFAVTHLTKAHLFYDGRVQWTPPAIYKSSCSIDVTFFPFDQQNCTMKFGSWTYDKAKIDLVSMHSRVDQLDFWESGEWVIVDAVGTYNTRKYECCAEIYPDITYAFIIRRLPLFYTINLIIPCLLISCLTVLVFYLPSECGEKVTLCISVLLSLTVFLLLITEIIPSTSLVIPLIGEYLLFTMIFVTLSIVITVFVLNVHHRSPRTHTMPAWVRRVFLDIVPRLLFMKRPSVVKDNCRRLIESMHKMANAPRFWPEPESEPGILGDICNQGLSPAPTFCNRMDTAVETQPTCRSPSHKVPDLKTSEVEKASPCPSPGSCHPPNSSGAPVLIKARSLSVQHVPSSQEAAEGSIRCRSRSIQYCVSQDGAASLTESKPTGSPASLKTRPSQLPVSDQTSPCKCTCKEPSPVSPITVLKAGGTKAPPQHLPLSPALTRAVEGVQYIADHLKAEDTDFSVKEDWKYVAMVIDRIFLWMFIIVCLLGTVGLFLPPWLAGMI
Chain of [125I]-epibatidine binding sites (α4β2-nAChR), cortex membranes (Q9ERK7 26-501): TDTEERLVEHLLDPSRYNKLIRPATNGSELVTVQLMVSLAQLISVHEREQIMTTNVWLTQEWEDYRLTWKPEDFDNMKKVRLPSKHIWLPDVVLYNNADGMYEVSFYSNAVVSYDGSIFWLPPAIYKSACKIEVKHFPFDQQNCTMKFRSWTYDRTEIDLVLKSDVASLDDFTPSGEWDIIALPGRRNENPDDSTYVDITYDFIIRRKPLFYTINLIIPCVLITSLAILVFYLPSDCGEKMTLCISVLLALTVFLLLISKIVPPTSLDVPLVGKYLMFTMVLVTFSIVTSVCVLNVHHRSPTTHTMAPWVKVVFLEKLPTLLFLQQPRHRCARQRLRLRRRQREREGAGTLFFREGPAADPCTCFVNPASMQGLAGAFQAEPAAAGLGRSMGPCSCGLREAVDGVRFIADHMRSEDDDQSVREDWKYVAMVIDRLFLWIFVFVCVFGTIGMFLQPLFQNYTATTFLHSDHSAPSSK

Ki [2]: 110 ± 10 pM
SMILES: c1cnc2cc3c(cc2n1)[C@@H]1CNC[C@H]3C1 [Varenicline]
brain:plasma ratio ([1]; rats, ref Hussmann, Turner et al, 2012): 1.5 | Plasma level ([3]; humans taking varenicline, smoking cessation study, ref Dobrinas et al, 2011): up to 20 ng/ml | Plasma level ([3]; humans, single oral dose 1 mg (~[…]), ref Obach et al, 2006, Al-Haj et al, 2013): 4 to 6 ng/mL | t ½ ([3]; humans, ref Obach et al, 2006): 17.6 h | Peak plasma level ([4]; mice, single oral dose of 3 mg (or ~120 mg/kg), ref Obach et al, 2006): 293 ng/mL

SMILES: CN1CCC[C@H]1c1cccnc1 [Nicotine]
ED50 ([5]; 24 h, read-out: ED50 of acute ip nicotine, Body temperature): 0.8 ± 0.05 mg/kg | ED50 ([5]; 24 h, read-out: ED50 of acute ip nicotine, Open field): 0.6 ± 0.06 mg/kg | ED50 ([5]; 24 h, read-out: ED50 of acute ip nicotine, Y-maze cross): 0.49 ± 0.04 mg/kg | ED50 ([5]; 24 h, read-out: ED50 of acute ip nicotine, Y-maze rear): 0.38 ± 0.03 mg/kg | ED50 ([5]; read-out: ED50 of acute ip nicotine, Body temperature): 0.88 ± 0.09 mg/kg | ED50 ([5]; read-out: ED50 of acute ip nicotine, Open field): 0.55 ± 0.06 mg/kg | ED50 ([5]; read-out: ED50 of acute ip nicotine, Y-maze cross): 0.47 ± 0.06 mg/kg | ED50 ([5]; read-out: ED50 of acute ip nicotine, Y-maze rear): 0.38 ± 0.05 mg/kg | Plasma level ([1]; rat, sc infusion of 2.4 mg/kg/day, ref Rowell and Li, 1997): 43 ng/mL | Plasma level ([1]; rats, 0.8 mg/kg/day, ref Ghosheh et al, 2001): 6.5 ng/mL | Plasma level ([1]; rats, 6.0 mg/kg/day, ref Hussman, Turner et al, 2012, Doura et al, 2008): 146 to 313 ng/mL | Plasma level ([3]; human smokers, pre-quit, smoking cessation trial, ref Dobrinas et al, 2011): up to 52 ng/ml | Plasma level ([4]; mice, 12-24 mg/kg/day, ref Marks, Rowell et al., 2004, Matta et al, 2007): 40 to 80 ng/mL | Plasma level ([4]; mice, similar chronic treatment protocols, ref Marks, Rowell et al., 2004): 40 to 80 ng/mL | Plasma level ([4]; mouse, in vivo, sc, 1 mg/kg): 160 ng/mL
